# Data: patent publication US20160083397A1, “PARTHENOLIDE DERIVATIVES AND THEIR MODULATION OF PROCESSES CONTROLLED BY REGULATED TRANSLATION” (THE BOARD OF TRUSTEES OF THE UNIVERSITY OF ARKANSAS, priority 2013, published 2016)
# What was measured:
# A498 = conditions: for GI50: A498, Renal Cancer
# HS 578T = conditions: for GI50: HS 578T, Breast Cancer
# HCT-15 = conditions: for GI50: HCT-15, Colon Cancer
# K-562 = conditions: for GI50: K-562, Leukemia
# NCI-H23 = conditions: for GI50: NCI-H23, Lung Cancer
# Xenopus oocytes = assay: Xenopus oocyte maturation assay; assay type: cell-based; conditions: for Xenopus Oocyte Maturation Assay, Without Progesterone: no progesterone, activator = able to induce GVBD in the absence of added progesterone; for Xenopus Oocyte Maturation Assay, With Progesterone: test compound 100 μM, progesterone 2 μg/mL, inhibitor = slowed rate of progesterone-dependent GVBD by 20% or more
# Text: An in vivo Xenopus oocyte maturation assay was used to screen the compounds for their ability to modulate the activity of cell cycle control proteins, mRNA translational control proteins, and/or proteins involved in signaling pathways. In this assay, oocyte maturation (or cell cycle progression) is monitored phenotypically using an image capture system. Oocyte maturation is correlated with the appearance of a white spot at the animal pole of the darkly pigmented animal hemisphere of the oocyte. The white spot appears because the germinal vesicle (i.e., the large nucleus of the oocyte) migrates to the animal pole prior to meiotic germinal vesicle breakdown (GVBD).
# Immature stage VI Xenopus oocytes were transferred to wells of a flat bottom 96-well plate containing about 178 μL of L15 culture media. The oocytes were transferred using wide mouth 200 μL pipette tips with minimal transfer of culture medium (e.g., about 20 μL). Generally, the oocytes oriented with the pigmented animal hemisphere facing up due to the higher density of the yolk-containing vegetal hemisphere. Incorrectly orientated oocytes were gently manipulated using a drawn-out capillary tube to rotate them into the correct orientation.
# Forty-four test compounds were dissolved in DMSO to make 100× stock solutions. The test compounds were added to the appropriate wells at a final concentration of 100 μM (and 1% DMSO). Control oocytes were exposed to 1% DMSO only (generally the first and last wells of a plate contained the untreated, control oocytes). Sixteen hours later, progesterone was added to each well to stimulate progesterone-dependent oocyte maturation. For this, 2 μL of 1000× stock solution (2 mg/mL in ethanol) was added to the appropriate wells to yield a final concentration of 2 μg/mL. The rate of maturation in the control oocytes (i.e., those in the first and last wells) served as an intra-assay control for time taken for progesterone addition across the multi-well plate.
# The 96-well plate was imaged from above (i.e., top-down) using a 36-megapixel Nikon D800 SLR camera with an AF Micro Nikkor 60 mm, f/2.8 lens, mounted on a dedicated copy stand (with adjustable flanking light sources). The plate was imaged prior to and after addition of progesterone (i.e., images were taken at regular intervals over a period of 7 hours). The high resolution images were digitally zoomed after capture to analyze the maturation status of oocytes in individual wells of the plate. Test compounds that slowed the rate of progesterone-dependent GVBD by 20% or more were classified as inhibitors (assessed relative to the time 50% of the population of control, vehicle treated oocytes had undergone GVBD (GVBD50)).
# To determine whether the test compounds were able to activate oocyte maturation in a progesterone-independent manner, oocytes were incubated in the presence of the test compound (dissolved in DMSO) or DMSO only. The oocytes were imaged at regular intervals for the evidence of GVBD, or subsets of oocytes were removed at predetermined times and the activation status of key cell cycle control proteins (e.g., pMAP kinase, pCcd2, etc.) was analyzed by Western blotting. For example, activation of pMAP kinase is associated with increased phosphorylation whereas activation of pCdc2 is associated with decreased phosphorylation. Compounds were classified as an activator if they were able to induce GVBD in the absence of added progesterone. Further, compounds were classified as accelerators if they accelerated the rate of progesterone-stimulated GVBD, but were unable to induce GVBD in the absence of progesterone. The criteria for test compounds to be considered accelerators is that they must increase the rate of progesterone-dependent GVBD by 20% or more at one dose (assessed relative to the time 50% of the population of control, vehicle treated oocytes had undergone GVBD (GVBD50)).
# SNB-75 = conditions: for GI50: SNB-75, CNS Cancer
# HL-60(TB) = conditions: for GI50: Leukemia
# NCI/ADR-RES = conditions: for GI50: NCI/ADR-RES, Ovarian Cancer
# ACHN = assay: NCI 60-cell line five dose screen: ACHN; conditions: Renal Cancer
# OVCAR-5 = conditions: for GI50: OVCAR-5, Ovarian Cancer
# MDA-MB-435 = conditions: for GI50: MDA-MB-435, Melanoma
# OVCAR-3 = conditions: for GI50: OVCAR-3, Ovarian Cancer
# SN12C = conditions: for GI50: SN12C, Renal Cancer
# OVCAR-8 = conditions: for GI50: OVCAR-8, Ovarian Cancer
# HT29 = conditions: for GI50: HT29, Colon Cancer
# SK-MEL-5 = conditions: for GI50: SK-MEL-5, Melanoma
# SK-OV-3 = conditions: for GI50: SK-OV-3, Ovarian Cancer
# SF-539 = conditions: for GI50: SF-539, CNS Cancer
# SNB-19 = conditions: for GI50: SNB-19, CNS Cancer
# UO-31 = conditions: for GI50: UO-31, Renal Cancer
# MDA-MB-468 = conditions: for GI50: MDA-MB-468, Breast Cancer
# SW-620 = conditions: for GI50: SW-620, Colon Cancer
substance,measurement,setting,value
13-(2-iodoimidazole)parthenolide [PNR-5-65],CC50,A498,> 100 µM
same,GI50,A498,45.2 µM
same,CC50,HS 578T,> 100 µM
same,GI50,HS 578T,21.3 µM
same,CC50,HCT-15,55.6 µM
same,GI50,HCT-15,10.7 µM
same,CC50,K-562,90 µM
same,GI50,K-562,7.36 µM
same,CC50,NCI-H23,> 100 µM
same,GI50,NCI-H23,23.7 µM
same,"Xenopus Oocyte Maturation Assay, Without Progesterone",Xenopus oocytes,Not an activator or inhibitor
same,"Xenopus Oocyte Maturation Assay, With Progesterone",Xenopus oocytes,Not an activator or inhibitor
same,CC50,SNB-75,> 100 µM
same,GI50,SNB-75,19.3 µM
same,GI50,HL-60(TB),6.9 µM
same,CC50,NCI/ADR-RES,> 100 µM
same,GI50,NCI/ADR-RES,31.2 µM
same,GI50,ACHN,10.5 µM
same,CC50,OVCAR-5,52.5 µM
same,GI50,OVCAR-5,13.7 µM
same,CC50,MDA-MB-435,59.5 µM
same,GI50,MDA-MB-435,13.8 µM
same,CC50,OVCAR-3,50.8 µM
same,GI50,OVCAR-3,6.85 µM
same,CC50,SN12C,84.1 µM
same,GI50,SN12C,17.7 µM
same,CC50,OVCAR-8,59.9 µM
same,GI50,OVCAR-8,16.6 µM
same,CC50,HT29,61.5 µM
same,GI50,HT29,17.6 µM
same,CC50,SK-MEL-5,95.6 µM
same,GI50,SK-MEL-5,18.5 µM
same,CC50,SK-OV-3,> 100 µM
same,GI50,SK-OV-3,47.3 µM
same,CC50,SF-539,60.8 µM
same,GI50,SF-539,16.7 µM
same,CC50,SNB-19,> 100 µM
same,GI50,SNB-19,> 100 µM
same,CC50,UO-31,50 µM
same,GI50,UO-31,10.8 µM
same,CC50,MDA-MB-468,60.4 µM
same,GI50,MDA-MB-468,11.1 µM
same,CC50,SW-620,62.8 µM
same,GI50,SW-620,11.4 µM
(E)-13-(3-thiopheno)parthenolide [PNR-5-53],CC50,A498,> 100 µM
same,GI50,A498,17.5 µM
same,CC50,HS 578T,> 100 µM
same,GI50,HS 578T,21.5 µM
same,CC50,HCT-15,> 100 µM
same,GI50,HCT-15,22.6 µM
same,CC50,K-562,> 100 µM
same,GI50,K-562,25.2 µM
same,CC50,NCI-H23,> 100 µM
same,GI50,NCI-H23,23 µM
same,"Xenopus Oocyte Maturation Assay, Without Progesterone",Xenopus oocytes,Not an activator or inhibitor
same,"Xenopus Oocyte Maturation Assay, With Progesterone",Xenopus oocytes,Not an activator or inhibitor
same,CC50,SNB-75,> 100 µM
same,GI50,SNB-75,21.5 µM
same,GI50,HL-60(TB),21.7 µM
same,CC50,"HL-60(TB); read-out: LC50, Leukemia",99.9 µM
same,CC50,NCI/ADR-RES,> 100 µM
same,GI50,NCI/ADR-RES,23.6 µM
same,GI50,ACHN,32.8 µM
same,CC50,OVCAR-5,> 100 µM
same,GI50,OVCAR-5,48.1 µM
same,CC50,MDA-MB-435,> 100 µM
same,GI50,MDA-MB-435,18.3 µM
same,CC50,OVCAR-3,> 100 µM
same,GI50,OVCAR-3,20.5 µM
same,CC50,SN12C,> 100 µM
same,GI50,SN12C,25.8 µM
same,CC50,OVCAR-8,> 100 µM
same,GI50,OVCAR-8,26.9 µM
same,CC50,HT29,> 100 µM
same,GI50,HT29,27 µM
same,CC50,SK-MEL-5,60.4 µM
same,GI50,SK-MEL-5,16.3 µM
same,CC50,SK-OV-3,> 100 µM
same,GI50,SK-OV-3,44.9 µM
same,GI50,SF-539,16.1 µM
same,CC50,SNB-19,> 100 µM
same,GI50,SNB-19,47.6 µM
same,CC50,UO-31,> 100 µM
same,GI50,UO-31,27.3 µM
same,CC50,MDA-MB-468,> 100 µM
same,GI50,MDA-MB-468,17.7 µM
same,CC50,SW-620,> 100 µM
same,GI50,SW-620,22.9 µM
